Data taken from the supplement of paper PMC10307832.

Legend:
Test in all cases: relative viability (nuclei count vs DMSO), 5 days (fraction); higher = more cells survive
[1] = compound: O=C(CCCCCCNC(=O)c1cnc(N(c2ccccc2)c2ccccc2)nc1)NO [Ricolinostat] + Cc1cc(Nc2cc(N3CCN(C)CC3)nc(Sc3ccc(NC(=O)C4CC4)cc3)n2)n[nH]1 [Tozasertib] (partner 0.1 µM)
How it was run: (§1)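 The day after seeding in 1536-well plates, lung cancer cell lines were treated by pin tool with a single drug, or with a fixed anchor-drug dose together with five library-drug doses (not always all listed) in √10 steps. After 5 days, a combined fix-and-stain solution (final 0.05% Triton X-100, 1% formaldehyde, 1 ug/ml Hoechst) was added. Nuclei counted on 4× images gave relative viability as treated counts over vehicle counts, reported as the median of duplicate plates.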

Ricolinostat + Olaparib = compound: O=C(CCCCCCNC(=O)c1cnc(N(c2ccccc2)c2ccccc2)nc1)NO [Ricolinostat] + O=C(c1cc(Cc2n[nH]c(=O)c3ccccc23)ccc1F)N1CCN(C(=O)C2CC2)CC1 [Olaparib] (partner 8 µM)
How it was run: as §1

[2] = compound: C1=CC=C(C(=C1)C2=CC=C(C=C2)C3=CSC4=C3C(=C(C(=O)N4)C#N)O)O + O=C(CCCCCCC(=O)Nc1ccccc1)NO [Vorinostat] (partner 1 µM)
How it was run: as §1

[3] = compound: C1=CC=C(C(=C1)C2=CC=C(C=C2)C3=CSC4=C3C(=C(C(=O)N4)C#N)O)O + Nc1nc2[nH]cc(CCc3ccc(C(=O)N[C@@H](CCC(=O)O)C(=O)O)cc3)c2c(=O)[nH]1 [Pemetrexed] (partner 0.2 µM)
How it was run: as §1

| Cell Line | relative viability ([1]; first compound 0.08 µM) | relative viability ([1]; first compound 0.253 µM) | relative viability ([1]; first compound 0.8 µM) | relative viability ([1]; first compound 2.53 µM) | relative viability (Ricolinostat + Olaparib; first compound 0.08 µM) | relative viability (Ricolinostat + Olaparib; first compound 0.253 µM) | relative viability (Ricolinostat + Olaparib; first compound 0.8 µM) | relative viability (Ricolinostat + Olaparib; first compound 2.53 µM) | relative viability ([2]; first compound 0.08 µM) | relative viability ([2]; first compound 0.253 µM) | relative viability ([2]; first compound 0.8 µM) | relative viability ([2]; first compound 2.53 µM) | relative viability ([2]; first compound 8 µM) | relative viability ([3]; first compound 0.08 µM) | relative viability ([3]; first compound 0.253 µM) | relative viability ([3]; first compound 0.8 µM) | relative viability ([3]; first compound 2.53 µM) | relative viability ([3]; first compound 8 µM) |
| --- | --- | --- | --- | --- | --- | --- | --- | --- | --- | --- | --- | --- | --- | --- | --- | --- | --- | --- |
| 201T | 0.909 | 0.932 | 0.829 | 0.612 | 0.785 | 0.845 | 0.891 | 0.806 | 0.874 | 0.952 | 0.811 | 1 | 0.902 | 0.354 | 0.331 | 0.358 | 0.353 | 0.298 |
| A549 |  |  |  |  |  | 0.252 | 0.286 | 0.139 |  |  |  |  |  |  |  |  |  |  |
| A-427 |  | 0.198 | 0.182 | 0.174 | 0.572 | 0.762 | 0.586 | 0.594 | 0.923 | 0.861 | 0.864 | 0.904 | 0.859 | 0.941 | 1.11 | 1.03 | 1.01 | 0.989 |
| ABC-1 | 0.215 | 0.203 | 0.229 | 0.18 | 0.781 | 1.05 | 1.08 | 1.01 | 0.813 | 0.921 | 1.03 | 0.956 | 0.768 |  |  |  |  |  |
| BEN | 0.539 | 0.558 | 0.534 | 0.517 | 1.05 | 0.995 | 0.999 | 1.02 | 0.567 | 0.678 | 0.59 | 0.531 | 0.573 | 0.694 | 0.786 | 0.761 | 0.857 | 0.761 |
| CAL-12T | 0.326 | 0.261 | 0.284 | 0.196 | 0.739 | 0.732 | 0.701 | 0.77 | 0.65 | 0.817 | 0.884 | 0.743 | 0.643 | 0.958 | 1.23 | 1.24 | 1.43 | 1.33 |
| COR-L23 | 0.207 | 0.193 | 0.162 | 0.121 | 0.247 | 0.315 | 0.267 | 0.168 | 0.404 | 0.477 | 0.409 | 0.38 | 0.379 | 0.222 | 0.228 | 0.212 | 0.189 | 0.19 |
| COR-L 105 |  | 0.325 | 0.3 | 0.352 | 0.61 | 0.686 | 0.797 | 0.962 | 0.763 | 0.807 | 0.805 | 1.01 | 0.706 | 0.948 | 1.16 | 1.1 | 1.11 | 1.15 |
| Calu-6 |  |  |  |  | 0.548 | 0.526 | 0.562 | 0.419 |  |  |  |  |  |  |  |  |  |  |
| ChaGo-K-1 | 0.201 | 0.234 | 0.224 | 0.226 | 0.464 | 0.395 | 0.364 | 0.324 | 0.733 | 0.821 | 0.801 | 0.822 | 0.683 | 0.271 | 0.257 | 0.256 | 0.251 | 0.256 |
| EBC-1 |  |  |  |  | 0.638 | 0.618 | 0.571 | 0.352 |  |  |  |  |  |  |  |  |  |  |
| EKVX | 0.354 | 0.373 |  | 0.384 | 0.638 | 0.897 | 0.853 | 0.836 | 0.672 | 1.01 | 0.758 | 0.653 | 0.561 | 0.425 | 0.497 | 0.399 | 0.465 | 0.336 |
| EMC-BAC-2 | 0.318 | 0.234 | 0.204 | 0.206 | 0.52 | 0.442 | 0.393 | 0.347 | 0.463 |  | 0.331 | 0.435 | 0.362 | 0.447 | 0.618 | 0.444 | 0.451 | 0.418 |
| EPLC-272H | 0.354 | 0.192 | 0.333 | 0.317 | 0.866 | 0.938 | 0.612 | 0.309 | 0.466 | 0.387 | 0.357 | 0.401 | 0.42 | 0.346 | 0.249 | 0.297 | 0.32 | 0.441 |
| H3255 | 0.566 | 0.623 | 0.61 | 0.558 | 0.543 | 0.529 | 0.525 | 0.506 | 0.823 | 0.863 |  | 0.886 | 0.784 | 0.561 | 0.563 | 0.561 | 0.591 | 0.54 |
| HARA | 0.106 | 0.16 | 0.076 | 0.0848 | 0.855 | 0.889 | 0.29 | 0.482 |  | 0.792 | 0.701 |  | 0.371 | 0.241 | 0.274 | 0.219 | 0.197 | 0.264 |
| HCC-15 | 0.349 | 0.35 | 0.233 | 0.233 | 0.669 | 0.57 | 0.64 | 0.59 | 0.861 | 0.954 | 0.869 | 0.905 | 0.725 | 0.237 | 0.232 | 0.213 | 0.242 | 0.215 |
| HCC-44 | 1.01 | 0.984 | 0.862 | 0.537 | 1.04 | 0.922 | 1.06 | 1 | 1.15 | 1.12 | 1.13 | 1.08 | 1.06 | 0.702 | 0.61 | 0.649 | 0.613 | 0.57 |
| HCC-78 |  | 0.33 | 0.347 | 0.27 |  | 0.788 | 0.735 | 0.448 | 0.514 | 0.678 | 0.448 | 0.523 | 0.352 | 0.79 | 0.946 | 0.903 | 0.959 | 0.883 |
| HCC-366 | 0.241 | 0.0847 | 0.0896 | 0.0599 | 0.272 | 0.309 | 0.277 | 0.212 |  | 0.35 | 0.348 | 0.309 | 0.315 |  | 0.172 | 0.168 | 0.176 | 0.165 |
| HCC-827 | 0.354 | 0.413 | 0.409 | 0.379 | 0.553 | 0.634 | 0.593 | 0.617 | 0.666 | 0.946 | 0.95 | 0.872 | 0.918 | 0.283 | 0.25 | 0.244 | 0.305 | 0.282 |
